From ChEMBL document CHEMBL4715821, “Discovery of 4-ethoxy-7H-pyrrolo[2,3-d]pyrimidin-2-amines as potent, selective and orally bioavailable LRRK2 inhibitors” (Bioorg Med Chem Lett, 2018)

Key:
[1] = Ratio of total drug concentration in brain to blood in Han-Wistar rat at 10 mg/kg, po; format: ADME, organism-based
[2] = Unbound fraction in human serum; format: ADME, cell-free
[3] = target: Serine/threonine-protein kinase A-Raf (Homo sapiens) (UniProt P10398); assay: Inhibition of ARAF (unknown origin) assessed as residual activity assessed as residual activity at 1 uM relative to control
[4] = target: Aurora kinase A (Homo sapiens) (UniProt O14965); assay: Inhibition of wild-type human partial length AURKA (E122 to K401 residues) expressed in mammalian expression system assessed as residual activity at 1 uM by Kinomescan method relative to control
[5] = target: Serine/threonine-protein kinase B-raf (Homo sapiens) (UniProt P15056); assay: Inhibition of wild type human BRAF (S429 to E741 residues) expressed in bacterial expression system assessed as residual activity at 1 uM by Kinomescan method relative to control
Chain of Serine/threonine-protein kinase B-raf (Homo sapiens) (P15056 whole entry, the tested form may be a part): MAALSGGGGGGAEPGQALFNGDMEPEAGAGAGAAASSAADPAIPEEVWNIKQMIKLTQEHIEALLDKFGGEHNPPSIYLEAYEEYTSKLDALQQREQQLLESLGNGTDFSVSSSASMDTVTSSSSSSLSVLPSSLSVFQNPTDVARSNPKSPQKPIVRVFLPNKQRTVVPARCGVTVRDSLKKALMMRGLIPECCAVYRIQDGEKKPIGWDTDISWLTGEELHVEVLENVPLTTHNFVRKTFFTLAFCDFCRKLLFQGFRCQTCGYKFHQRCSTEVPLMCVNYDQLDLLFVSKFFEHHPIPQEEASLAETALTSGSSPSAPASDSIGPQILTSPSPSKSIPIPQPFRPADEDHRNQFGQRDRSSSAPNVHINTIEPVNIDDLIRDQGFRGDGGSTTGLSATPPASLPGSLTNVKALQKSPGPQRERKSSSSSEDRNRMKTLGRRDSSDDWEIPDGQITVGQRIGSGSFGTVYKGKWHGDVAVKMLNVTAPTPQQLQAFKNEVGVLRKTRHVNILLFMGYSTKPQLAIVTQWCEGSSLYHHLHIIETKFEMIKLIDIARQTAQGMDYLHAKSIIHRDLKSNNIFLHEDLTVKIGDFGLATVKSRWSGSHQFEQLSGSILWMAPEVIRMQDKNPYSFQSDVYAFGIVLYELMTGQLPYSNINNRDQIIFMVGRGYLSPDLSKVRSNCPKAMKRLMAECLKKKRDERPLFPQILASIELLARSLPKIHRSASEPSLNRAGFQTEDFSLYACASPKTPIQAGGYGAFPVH

[6] = target: Calcium/calmodulin-dependent protein kinase type 1 (Homo sapiens) (UniProt Q14012); assay: Inhibition of wild-type human full length CAMK1A (M1 to L370 residues) expressed in bacterial expression system assessed as residual activity at 1 uM by Kinomescan method relative to control
[7] = target: Calcium/calmodulin-dependent protein kinase type II subunit beta (Homo sapiens) (UniProt Q13554); assay: Inhibition of wild-type human partial length CAMK2B (M1 to Q380 residues) expressed in bacterial expression system assessed as residual activity at 1 uM by Kinomescan method relative to control
[8] = target: CDK3/Cyclin E (Homo sapiens) (UniProt P24864+Q00526); assay: Inhibition of wild-type human full length CDK3 (M1 to H305 residues)/Cyclin E expressed in bacterial expression system at 1 uM by Kinomescan method; design: scale not given: the % may be the effect or the level left
[9] = target: Casein kinase I isoform gamma-1 (Homo sapiens) (UniProt Q9HCP0); assay: Inhibition of CK1g1 (unknown origin) assessed as residual activity at 1 uM by Kinomescan method relative to control
[10] = target: Tyrosine-protein kinase CSK (Homo sapiens) (UniProt P41240); assay: Inhibition of wild-type human full length CSK (M1 to L450 residues) expressed in bacterial expression system assessed as residual activity at 1 uM by Kinomescan method relative to control
Chain of Tyrosine-protein kinase CSK (Homo sapiens) (P41240 2-450 limits assumed): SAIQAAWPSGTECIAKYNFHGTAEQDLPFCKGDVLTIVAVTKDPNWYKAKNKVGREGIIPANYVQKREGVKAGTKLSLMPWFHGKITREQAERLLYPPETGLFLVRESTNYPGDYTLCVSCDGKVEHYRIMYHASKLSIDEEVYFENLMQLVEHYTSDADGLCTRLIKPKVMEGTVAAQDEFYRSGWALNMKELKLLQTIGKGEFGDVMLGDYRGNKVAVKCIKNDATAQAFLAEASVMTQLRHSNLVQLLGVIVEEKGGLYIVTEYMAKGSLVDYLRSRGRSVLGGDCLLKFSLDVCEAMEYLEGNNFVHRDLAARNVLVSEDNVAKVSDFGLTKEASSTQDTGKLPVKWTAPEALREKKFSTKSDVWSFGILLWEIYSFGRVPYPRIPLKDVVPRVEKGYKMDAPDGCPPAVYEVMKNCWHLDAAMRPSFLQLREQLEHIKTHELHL

[11] = target: Fibroblast growth factor receptor 1 (Homo sapiens) (UniProt P11362); assay: Inhibition of wild-type human partial length FGFR1 (P357 to V669 residues) expressed in bacterial expression system assessed as residual activity at 1 uM by Kinomescan method relative to control
[12] = target: Fibroblast growth factor receptor 2 (Homo sapiens) (UniProt P21802); assay: Inhibition of wild type human partial length FGFR2 (D457 to E769 residues) expressed in bacterial expression system assessed as residual activity at 1 uM by Kinomescan method relative to control
[13] = target: Inhibitor of nuclear factor kappa-B kinase subunit epsilon (Homo sapiens) (UniProt Q14164); assay: Inhibition of wild-type human full length IKK-epsilon (M1 to V716 residues) expressed in mammalian expression system assessed as residual activity at 1 uM by Kinomescan method relative to control
[14] = target: Leucine-rich repeat serine/threonine-protein kinase 2 (Homo sapiens, UniProt Q5S007); assay: Inhibition of wild-type human partial length LRRK2 (H970 to E2527 residues) expressed in mammalian expression system assessed as residual activity at 1 uM by Kinomescan method relative to control
Chain of Leucine-rich repeat serine/threonine-protein kinase 2 (Q5S007 whole entry, the tested form may be a part): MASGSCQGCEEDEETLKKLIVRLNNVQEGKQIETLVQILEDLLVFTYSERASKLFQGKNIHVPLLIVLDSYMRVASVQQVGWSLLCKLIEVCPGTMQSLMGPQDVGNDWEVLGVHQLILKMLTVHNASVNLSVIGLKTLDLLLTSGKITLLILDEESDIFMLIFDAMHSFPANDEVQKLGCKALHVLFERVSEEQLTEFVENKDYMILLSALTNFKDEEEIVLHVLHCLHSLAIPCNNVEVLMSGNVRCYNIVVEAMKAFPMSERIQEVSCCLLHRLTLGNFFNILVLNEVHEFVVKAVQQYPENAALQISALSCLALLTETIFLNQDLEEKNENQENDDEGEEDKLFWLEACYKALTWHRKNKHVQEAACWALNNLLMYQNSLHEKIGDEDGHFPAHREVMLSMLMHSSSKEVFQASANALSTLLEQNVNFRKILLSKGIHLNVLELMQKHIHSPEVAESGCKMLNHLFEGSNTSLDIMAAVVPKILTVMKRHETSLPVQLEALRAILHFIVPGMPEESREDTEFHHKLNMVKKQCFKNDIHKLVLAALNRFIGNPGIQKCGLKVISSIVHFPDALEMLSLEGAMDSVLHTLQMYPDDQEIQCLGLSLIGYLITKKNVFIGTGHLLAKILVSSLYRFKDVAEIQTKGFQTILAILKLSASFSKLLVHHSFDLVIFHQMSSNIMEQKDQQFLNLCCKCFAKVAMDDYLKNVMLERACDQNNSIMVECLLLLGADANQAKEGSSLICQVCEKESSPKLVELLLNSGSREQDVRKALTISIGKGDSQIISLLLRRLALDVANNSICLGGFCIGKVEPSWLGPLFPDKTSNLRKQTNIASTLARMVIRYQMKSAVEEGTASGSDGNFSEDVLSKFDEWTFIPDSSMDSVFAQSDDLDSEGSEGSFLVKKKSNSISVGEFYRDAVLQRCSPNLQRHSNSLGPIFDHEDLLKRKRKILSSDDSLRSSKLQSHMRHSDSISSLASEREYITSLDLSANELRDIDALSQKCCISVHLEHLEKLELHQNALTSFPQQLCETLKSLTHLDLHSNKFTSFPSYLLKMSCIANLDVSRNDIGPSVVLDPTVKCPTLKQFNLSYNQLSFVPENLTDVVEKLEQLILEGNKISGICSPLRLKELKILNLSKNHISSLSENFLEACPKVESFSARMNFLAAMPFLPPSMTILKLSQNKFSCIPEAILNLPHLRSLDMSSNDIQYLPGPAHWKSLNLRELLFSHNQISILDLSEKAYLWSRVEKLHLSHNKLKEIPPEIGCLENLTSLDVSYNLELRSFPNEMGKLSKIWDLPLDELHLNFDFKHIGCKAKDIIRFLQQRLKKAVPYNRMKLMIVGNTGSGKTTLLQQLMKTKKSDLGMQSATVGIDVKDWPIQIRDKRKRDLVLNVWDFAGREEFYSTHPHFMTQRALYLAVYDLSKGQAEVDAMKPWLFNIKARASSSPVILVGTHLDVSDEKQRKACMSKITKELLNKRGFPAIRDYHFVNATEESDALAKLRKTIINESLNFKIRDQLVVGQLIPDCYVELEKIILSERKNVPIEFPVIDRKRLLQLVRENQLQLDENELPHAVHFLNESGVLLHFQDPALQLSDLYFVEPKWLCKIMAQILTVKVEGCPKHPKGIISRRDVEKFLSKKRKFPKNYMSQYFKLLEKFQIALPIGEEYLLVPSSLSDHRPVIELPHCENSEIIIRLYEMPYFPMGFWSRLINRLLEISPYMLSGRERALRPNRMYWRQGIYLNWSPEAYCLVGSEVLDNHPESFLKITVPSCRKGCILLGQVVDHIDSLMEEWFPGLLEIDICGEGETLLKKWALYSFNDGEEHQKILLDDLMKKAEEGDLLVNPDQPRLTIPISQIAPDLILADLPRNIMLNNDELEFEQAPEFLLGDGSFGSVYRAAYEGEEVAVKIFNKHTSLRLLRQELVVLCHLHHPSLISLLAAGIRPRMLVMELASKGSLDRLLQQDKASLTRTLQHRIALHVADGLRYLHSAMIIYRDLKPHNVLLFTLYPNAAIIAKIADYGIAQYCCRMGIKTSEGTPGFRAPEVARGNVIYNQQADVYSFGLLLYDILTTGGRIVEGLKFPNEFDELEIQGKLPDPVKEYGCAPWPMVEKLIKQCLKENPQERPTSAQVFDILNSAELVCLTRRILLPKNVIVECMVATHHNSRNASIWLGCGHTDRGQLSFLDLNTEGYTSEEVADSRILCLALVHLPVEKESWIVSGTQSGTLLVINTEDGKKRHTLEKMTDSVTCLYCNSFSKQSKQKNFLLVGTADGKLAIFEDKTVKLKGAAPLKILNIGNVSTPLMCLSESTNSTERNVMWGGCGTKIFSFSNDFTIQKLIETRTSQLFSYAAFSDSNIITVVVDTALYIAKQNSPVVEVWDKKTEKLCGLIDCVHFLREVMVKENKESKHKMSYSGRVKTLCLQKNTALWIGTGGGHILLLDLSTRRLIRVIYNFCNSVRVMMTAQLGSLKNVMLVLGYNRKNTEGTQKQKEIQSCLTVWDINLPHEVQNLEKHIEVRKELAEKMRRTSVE

[15] = target: MAP kinase-interacting serine/threonine-protein kinase 2 (Homo sapiens) (UniProt Q9HBH9); assay: Inhibition of MNK2 (unknown origin) assessed as residual activity at 1 uM by Kinomescan method relative to control
[16] = target: Serine/threonine-protein kinase Nek6 (Homo sapiens) (UniProt Q9HC98); assay: Inhibition of wild-type human full length NEK6 (M8 to T313 residues) expressed in bacterial expression system assessed as residual activity at 1 uM by Kinomescan method relative to control
[17] = target: Dual specificity mitogen-activated protein kinase kinase 1 (Homo sapiens) (UniProt Q02750); assay: Inhibition of wild-type human full length MEK1 (M1 to V393 residues) expressed in mammalian expression system assessed as residual activity at 1 uM by Kinomescan method relative to control
[18] = target: Myosin light chain kinase 2, skeletal/cardiac muscle (Homo sapiens) (UniProt Q9H1R3); assay: Inhibition of MLCK2 (unknown origin) assessed as residual activity at 1 uM by Kinomescan method relative to control
[19] = target: Serine/threonine-protein kinase NLK (Homo sapiens) (UniProt Q9UBE8); assay: Inhibition of wild-type human full length NLK (M13 to E527 residues) expressed in bacterial expression system assessed as residual activity at 1 uM by Kinomescan method relative to control
Chain of Serine/threonine-protein kinase NLK (Homo sapiens) (Q9UBE8 whole entry, the tested form may be a part): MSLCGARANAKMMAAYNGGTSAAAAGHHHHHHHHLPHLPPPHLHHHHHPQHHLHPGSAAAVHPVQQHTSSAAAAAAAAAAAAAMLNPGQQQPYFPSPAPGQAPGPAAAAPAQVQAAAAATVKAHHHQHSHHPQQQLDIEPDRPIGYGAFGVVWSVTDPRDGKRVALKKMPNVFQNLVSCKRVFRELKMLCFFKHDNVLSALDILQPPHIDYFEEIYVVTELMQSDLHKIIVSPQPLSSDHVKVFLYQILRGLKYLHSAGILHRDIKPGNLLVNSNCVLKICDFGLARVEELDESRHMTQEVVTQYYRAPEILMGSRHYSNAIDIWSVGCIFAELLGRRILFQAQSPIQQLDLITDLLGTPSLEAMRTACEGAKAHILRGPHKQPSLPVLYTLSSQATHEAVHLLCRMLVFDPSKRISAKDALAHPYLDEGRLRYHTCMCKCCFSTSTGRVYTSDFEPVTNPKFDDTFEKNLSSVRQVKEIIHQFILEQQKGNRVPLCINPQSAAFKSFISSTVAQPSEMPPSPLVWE

[20] = target: Mitogen-activated protein kinase 14 (Homo sapiens) (UniProt Q16539); assay: Inhibition of wild-type human full length p38-alpha (M1 to S360 residues) expressed in bacterial expression system assessed as residual activity at 1 uM by Kinomescan method relative to control
[21] = target: Serine/threonine-protein kinase PAK 4 (Homo sapiens) (UniProt O96013); assay: Inhibition of wild-type human partial length PAK4 (Q144 to R438 residues) expressed in bacterial expression system assessed as residual activity at 1 uM by Kinomescan method relative to control
[22] = target: Protein kinase C alpha type (Homo sapiens) (UniProt P17252); assay: Inhibition of PKCalpha (unknown origin) assessed as residual activity at 1 uM by Kinomescan method relative to control
[23] = target: Protein kinase C beta type (Homo sapiens) (UniProt P05771); assay: Inhibition of PKCbeta1 (unknown origin) assessed as residual activity at 1 uM by Kinomescan method relative to control
Chain of Protein kinase C beta type (Homo sapiens) (P05771 2-671 limits assumed): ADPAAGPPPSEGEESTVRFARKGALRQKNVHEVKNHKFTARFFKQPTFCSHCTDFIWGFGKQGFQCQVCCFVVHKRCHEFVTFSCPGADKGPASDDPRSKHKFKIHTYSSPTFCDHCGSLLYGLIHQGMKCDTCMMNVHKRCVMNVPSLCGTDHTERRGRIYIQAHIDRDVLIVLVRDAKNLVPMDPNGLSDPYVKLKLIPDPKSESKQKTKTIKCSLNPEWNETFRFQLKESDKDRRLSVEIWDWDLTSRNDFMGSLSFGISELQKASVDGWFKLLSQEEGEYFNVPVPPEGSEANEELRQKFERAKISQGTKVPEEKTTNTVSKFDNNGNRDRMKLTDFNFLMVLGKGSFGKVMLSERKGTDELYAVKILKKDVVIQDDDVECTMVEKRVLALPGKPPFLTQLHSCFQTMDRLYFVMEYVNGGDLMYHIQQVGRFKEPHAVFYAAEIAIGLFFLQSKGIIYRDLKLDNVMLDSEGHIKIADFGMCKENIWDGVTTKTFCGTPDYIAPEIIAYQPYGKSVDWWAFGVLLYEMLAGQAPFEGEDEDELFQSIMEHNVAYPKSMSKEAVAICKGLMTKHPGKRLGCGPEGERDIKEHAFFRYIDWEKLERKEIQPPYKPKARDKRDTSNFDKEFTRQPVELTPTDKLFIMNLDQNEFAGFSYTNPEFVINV

[24] = target: Dual serine/threonine and tyrosine protein kinase (Homo sapiens) (UniProt Q6XUX3); assay: Inhibition of wild-type human full length RIPK5 (M1 to T929 residues) expressed in mammalian expression system assessed as residual activity at 1 uM by Kinomescan method relative to control
[25] = target: Rho-associated protein kinase 2 (Homo sapiens) (UniProt O75116); assay: Inhibition of wild-type human partial length ROCK2 (M1 to T431 residues) expressed in mammalian expression system assessed as residual activity at 1 uM by Kinomescan method relative to control
[26] = target: SRSF protein kinase 1 (Homo sapiens) (UniProt Q96SB4); assay: Inhibition of wild-type human full length SRPK1 (M1 to S655 residues) expressed in bacterial expression system assessed as residual activity at 1 uM by Kinomescan method relative to control
[27] = target: Leukocyte tyrosine kinase receptor (Homo sapiens) (UniProt P29376); assay: Inhibition of wild-type human partial length LTK (P422 to S744 residues) expressed in bacterial expression system assessed as residual activity at 1 uM by Kinomescan method relative to control
[28] = target: LIM domain kinase 2 (Homo sapiens) (UniProt P53671); assay: Inhibition of wild-type human full length LIMK2 (M1 to P638 residues) expressed in bacterial expression system assessed as residual activity at 1 uM by Kinomescan method relative to control

In the case of CCOc1nc(Nc2ccc(C(=O)N3CCOCC3)cc2OC)nc2[nH]ccc12, the Kp [1] is reported as 0.24, the fraction unbound [2] is reported as 0.059 and the Activity [3] is reported as 95.9%. It also gave an Activity [4] of 94.8%, an Activity [5] of 88% and an Activity [6] of 85.9%. The Activity [7] was 92.6%, the Activity [8] was 87.7% and the Activity [9] was 95%. It also gave an Activity [10] of 104%, an Activity [11] of 90.7% and an Activity [12] of 111%. The Activity [13] was 88.8%, the Activity [14] was 0.91% and the Activity [15] was 102%. For the same compound, the Activity [16] was 96.8%, the Activity [17] was 100% and the Activity [18] was 95.6%. It also gave an Activity [19] of 94.5%, an Activity [20] of 99.9% and an Activity [21] of 99%. The Activity [22] was 95.5%, the Activity [23] was 100% and the Activity [24] was 111%. For the same compound, the Activity [25] was 91.3%, the Activity [26] was 87.4% and the Activity [27] was 20.2%. The Activity [28] was 106%.
